Measured values taken from PMC12910644 (Journal of Medicinal Chemistry, 2026).
pIC50: −log10 of the molar value.

How the values were obtained:
CK1γ1 [1] = molecular target: T1, CK1γ1 (Homo sapiens, UniProt Q9HCP0); test: CK1γ1 NanoBRET assay with tracer 23, intact cells; format: cell-based; details: intact HEK293 cells, N = 1
CK1γ1 [2] = molecular target: T1, CK1γ1; test: Eurofins radiometric enzymatic assay CK1γ1; format: biochemical
CK1γ2 [3] = molecular target: T2, CK1γ2 (Homo sapiens, UniProt P78368); test: Eurofins radiometric enzymatic assay CK1γ2; format: biochemical
T2 sequence (P78368 whole entry): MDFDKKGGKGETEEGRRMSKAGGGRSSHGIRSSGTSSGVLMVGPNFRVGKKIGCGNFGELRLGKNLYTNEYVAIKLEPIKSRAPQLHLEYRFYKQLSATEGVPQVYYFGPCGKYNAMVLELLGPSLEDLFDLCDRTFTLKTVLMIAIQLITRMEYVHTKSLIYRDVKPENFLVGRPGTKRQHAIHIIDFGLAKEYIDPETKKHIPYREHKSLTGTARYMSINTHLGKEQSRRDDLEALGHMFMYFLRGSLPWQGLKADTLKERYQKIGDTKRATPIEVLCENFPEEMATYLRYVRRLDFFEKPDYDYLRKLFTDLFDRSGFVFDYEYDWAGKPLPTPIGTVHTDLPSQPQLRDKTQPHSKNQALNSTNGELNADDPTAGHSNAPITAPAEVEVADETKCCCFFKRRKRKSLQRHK

CK1γ3 [4] = molecular target: T3, CK1γ3 (Homo sapiens, UniProt Q9Y6M4); test: Eurofins radiometric enzymatic assay CK1γ3; format: biochemical; details: read-out: enzymatic IC50 CK1γ3, ATP at Km, N = 1
Target sequence in this assay (Q9Y6M4 33-362): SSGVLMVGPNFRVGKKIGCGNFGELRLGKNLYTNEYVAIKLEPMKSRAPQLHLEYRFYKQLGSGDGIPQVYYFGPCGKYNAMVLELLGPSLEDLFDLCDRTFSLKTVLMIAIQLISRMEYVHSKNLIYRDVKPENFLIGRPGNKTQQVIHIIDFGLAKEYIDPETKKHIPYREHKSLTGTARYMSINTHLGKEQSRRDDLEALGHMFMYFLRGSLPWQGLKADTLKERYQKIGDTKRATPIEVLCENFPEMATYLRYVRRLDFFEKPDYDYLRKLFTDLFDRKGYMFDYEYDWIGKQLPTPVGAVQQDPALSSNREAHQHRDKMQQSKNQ

CK1γ3 [5] = molecular target: T3, CK1γ3; test: CK1γ3 NanoBRET assay with tracer 23, intact cells; format: cell-based; details: intact HEK293 cells, N = 1
Target sequence in this assay (Q9Y6M4 whole entry): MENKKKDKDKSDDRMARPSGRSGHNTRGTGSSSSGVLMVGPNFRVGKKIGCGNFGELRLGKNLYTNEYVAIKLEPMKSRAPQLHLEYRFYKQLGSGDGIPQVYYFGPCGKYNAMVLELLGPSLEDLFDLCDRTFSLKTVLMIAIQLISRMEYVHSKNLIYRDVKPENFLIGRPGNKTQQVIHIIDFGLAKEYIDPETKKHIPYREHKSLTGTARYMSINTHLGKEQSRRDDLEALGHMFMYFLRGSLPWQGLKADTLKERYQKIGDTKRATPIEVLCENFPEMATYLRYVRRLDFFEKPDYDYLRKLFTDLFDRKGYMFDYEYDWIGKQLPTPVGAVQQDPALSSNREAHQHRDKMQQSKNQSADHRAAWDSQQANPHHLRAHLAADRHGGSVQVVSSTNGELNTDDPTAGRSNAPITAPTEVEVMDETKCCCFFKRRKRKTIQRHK

CK1γ2 [6] = molecular target: T2, CK1γ2; test: CK1γ2 NanoBRET assay with tracer 23, intact cells; format: cell-based; details: intact HEK293 cells, N = 1
CLK4 = CLK4 (Homo sapiens, UniProt Q9HAZ1); test: CLK4 NanoBRET assay
Chain of CLK4 (Q9HAZ1 whole entry): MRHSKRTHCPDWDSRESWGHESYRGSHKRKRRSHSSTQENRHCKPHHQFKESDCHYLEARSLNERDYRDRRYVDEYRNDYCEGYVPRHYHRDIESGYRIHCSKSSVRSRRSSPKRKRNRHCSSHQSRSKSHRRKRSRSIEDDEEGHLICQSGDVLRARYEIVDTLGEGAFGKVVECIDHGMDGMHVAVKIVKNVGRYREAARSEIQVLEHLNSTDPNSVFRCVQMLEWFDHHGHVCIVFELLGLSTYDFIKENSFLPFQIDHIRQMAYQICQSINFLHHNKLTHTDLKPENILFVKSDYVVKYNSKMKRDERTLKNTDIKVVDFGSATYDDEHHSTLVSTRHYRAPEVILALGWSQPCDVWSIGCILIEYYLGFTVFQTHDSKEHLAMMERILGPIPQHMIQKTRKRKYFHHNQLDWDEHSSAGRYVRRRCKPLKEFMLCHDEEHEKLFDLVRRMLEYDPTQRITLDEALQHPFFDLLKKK

panel of 192 kinases [7] = molecular target: panel of 192 kinases (Homo sapiens, UniProt Q9HAZ1); test: K192 NanoBRET kinase selectivity panel; format: cell-based; details: read-out: %Fractional Occupancy
Chain of panel of 192 kinases (Homo sapiens, UniProt Q9HAZ1) (Q9HAZ1 whole entry): as above

Dynamic light scattering = format: physicochemical; details: HBS buffer, 2% DMSO, 25 °C
panel of 192 kinases [8] = molecular target: panel of 192 kinases (Homo sapiens, UniProt P78368); test: K192 NanoBRET kinase selectivity panel; format: cell-based; details: read-out: %Fractional Occupancy
Chain of panel of 192 kinases (Homo sapiens, UniProt P78368) (P78368 whole entry): as the sequence (P78368 whole entry) above

HEK293 cells = test: CellTiter-Glo HEK293 cell viability assay; format: cell-based, human; details: 10 μM for 24 or 48 h
MOK = molecular target: T4, MOK (Homo sapiens, UniProt Q9UQ07); test: MOK NanoBRET assay; format: cell-based
T4 sequence (Q9UQ07 1-419): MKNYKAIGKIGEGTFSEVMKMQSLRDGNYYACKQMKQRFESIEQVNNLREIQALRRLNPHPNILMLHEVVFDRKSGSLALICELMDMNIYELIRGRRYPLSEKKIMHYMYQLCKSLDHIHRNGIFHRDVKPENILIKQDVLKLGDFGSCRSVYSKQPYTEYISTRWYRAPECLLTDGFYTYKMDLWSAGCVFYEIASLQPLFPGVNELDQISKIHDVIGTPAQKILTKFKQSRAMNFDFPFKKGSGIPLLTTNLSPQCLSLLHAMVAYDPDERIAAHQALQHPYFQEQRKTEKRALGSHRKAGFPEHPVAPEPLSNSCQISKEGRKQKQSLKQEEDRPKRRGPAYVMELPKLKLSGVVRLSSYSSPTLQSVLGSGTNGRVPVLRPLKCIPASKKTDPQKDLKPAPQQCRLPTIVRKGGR

[9] = system: LRP6 phosphorylation at T1479; test: Western blot of LRP6 phosphorylation in HEK293 cells; format: cell-based, human; details: 5 μM, WNT3A and R-Spondin-1, 2 h
[10] = read-out: NB IC50 CK1γ1, tracer 23
[11] = read-out: NB IC50 CK1γ3, tracer 23
[12] = read-out: NB IC50 CK1γ2, tracer 23

T1 sequence (Q9HCP0 whole entry): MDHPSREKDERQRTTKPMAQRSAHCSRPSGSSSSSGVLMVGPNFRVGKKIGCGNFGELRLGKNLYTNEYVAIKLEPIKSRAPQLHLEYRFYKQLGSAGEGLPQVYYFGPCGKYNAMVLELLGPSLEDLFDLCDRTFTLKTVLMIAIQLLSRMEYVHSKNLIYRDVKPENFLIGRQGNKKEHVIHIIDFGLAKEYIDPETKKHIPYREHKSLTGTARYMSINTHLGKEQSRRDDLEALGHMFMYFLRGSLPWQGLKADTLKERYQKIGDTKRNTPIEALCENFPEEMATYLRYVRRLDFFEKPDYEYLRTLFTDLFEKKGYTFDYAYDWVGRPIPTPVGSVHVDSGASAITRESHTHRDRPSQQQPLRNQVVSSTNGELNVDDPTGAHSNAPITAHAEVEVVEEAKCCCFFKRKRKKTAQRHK

Row | Structure (SMILES) | pIC50 (CK1γ1 [1]; NB IC50 CK1γ1, tracer 23) | pIC50 (CK1γ1 [2]) | pIC50 (CK1γ2 [3]) | pIC50 (CK1γ3 [4]) | pIC50 (CK1γ3 [5]; NB IC50 CK1γ3, tracer 23) | pIC50 (CK1γ2 [6]; NB IC50 CK1γ2, tracer 23) | further results
1 | N#Cc1ccc2nc(Nc3cc(F)c(N4CCOCC4)c(F)c3)[nH]c2c1 [Compound 11, 2-((3,5-Difluoro-4-morpholinophenyl)amino)-1H-benzo[d]imidazole-6-carbonitrile] | 6.04 | 6.92 | 7.60 | 6.01 | 5.48 | – | –
2 | N#Cc1ccc2nc(Nc3ccc(N4CCOCC4)c(F)c3)[nH]c2c1 [Compound 9, 2-((3-Fluoro-4-morpholinophenyl)amino)-1H-benzo[d]imidazole-6-carbonitrile] | 6.01 | 6.67 | 7.47 | 6.18 | – | 6.11 | –
3 | N#Cc1ccc2nc(Nc3ccc(N4CCOCC4)cc3)[nH]c2c1 [Compound 4, 2-((4-morpholinophenyl)amino)-1H-benzo[d]imidazole-6-carbonitrile] | 6.04 | 6.37 | 7.09 | 5.89 | – | 6.04 | –
4 | CN1CCN(c2ccc(Nc3nc4ccc(C#N)cc4[nH]3)cc2Cl)CC1 [Compound 21, 2-((3-Chloro-4-(4-methylpiperazin-1-yl)phenyl)amino)-1H-benzo[d]imidazole-6-carbonitrile] | 6.77 | – | – | 6.37 | 6.74 | 6.66 | pIC50 (CLK4): 6.24; receptor occupancy at 1 µM (panel of 192 kinases [7]): 49%
5 | N#Cc1ccc2[nH]c(Nc3ccc(N4CCCCC4)c(Cl)c3)nc2c1 [Compound 20, 2-((3-Chloro-4-(piperidin-1-yl)phenyl)amino)-1H-benzo[d]imidazole-5-carbonitrile] | 6.42 | – | – | 6.32 | 6.52 | 6.60 | –
6 | N#Cc1ccc2nc(Nc3ccc(N4CCOCC4)c(Cl)c3)[nH]c2c1 [Compound 14, 2-((3-Chloro-4-morpholinophenyl)amino)-1H-benzo[d]imidazole-6-carbonitrile] | 6.74 | – | – | 6.02 | – | 6.74 | aqueous solubility in DLS (Dynamic light scattering): good aqueous solubility; receptor occupancy at 1 µM (panel of 192 kinases [8]): 74%; HEK293 cell viability (CellTiter-Glo) (HEK293 cells): did not impact cell viability; pIC50 (MOK): < 5.30
7 | Nc1nccc(-c2c(-c3ccc(F)cc3)ncn2C2CCCCC2)n1 [PF-670462, reference compound] | – | – | – | – | – | – | pIC50 (CK1γ1 [1]; [10]): < 4.52; pIC50 (CK1γ3 [5]; [11]): < 4.52; pIC50 (CK1γ2 [6]; [12]): < 4.52
8 | N#Cc1ccc2nc(Nc3ccc(N4CCOCC4)c(Br)c3)[nH]c2c1 [Compound 15, 2-((3-Bromo-4-morpholinophenyl)amino)-1H-benzo[d]imidazole-6-carbonitrile] | 6.24 | – | – | 6.15 | 6.96 | 6.96 | –
9 | Cc1ccc2nc(NC(=O)CSc3nc4c(c(=O)n3-c3ccc(F)cc3)SCC4)sc2c1 [IWP-3, reference compound] | – | – | – | – | – | – | pIC50 (CK1γ1 [1]; [10]): < 4.52; pIC50 (CK1γ3 [5]; [11]): < 4.52; pIC50 (CK1γ2 [6]; [12]): < 4.52
10 | COc1cc(N2CCOCC2)ccc1Nc1nc2ccc(C#N)cc2[nH]1 [Compound 5, 2-((2-Methoxy-4-morpholinophenyl)amino)-1H-benzo[d]imidazole-6-carbonitrile] | < 4.52 | 5.26 | 5.38 | 5.56 | < 4.52 | < 4.52 | LRP6 phosphorylation at T1479 [9]: did not occur
11 | N#Cc1ccc2nc(Nc3ccc(N4CCOCC4)c(C(F)(F)F)c3)[nH]c2c1 [Compound 10, 2-((4-Morpholino-3-(trifluoromethyl)phenyl)amino)-1H-benzo[d]imidazole-6-carbonitrile] | 5.85 | 6.92 | 7.47 | – | 5.87 | 6.11 | –
